Experimental data from patent US20240409536A1, “COMPOUNDS AND METHODS FOR MODULATING SPLICING” (REMIX THERAPEUTICS INC., priority 2021, published 2024).
pIC50: −log10 of the molar value.

What was measured:
MYB mRNA = assay: Splicing RT-qPCR assay, MYB canonical (CJ) and alternative (AJ) junction mRNA; type: cell-based; conditions: Homo sapiens, A673 or K562 cells, 24 hours; for pIC50: decrease in canonical junction mRNA; for AC50: increase in alternative junction mRNA
Outline: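 RT-qPCR read-out: CJ and AJ junction isoforms quantified from cell lysates, normalized to housekeeping GAPDH/GUSB (K562) or PPIA (A673). Cells had 24 h compound exposure, 11-point 3-fold series from 10 uM final, ≤0.25% DMSO.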

HiBiT-tagged HTT protein = assay: HiBiT protein abundance assay, HTT (K562 HiBiT knock-in cells); type: cell-based, human; conditions: 24 hours
Outline: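 Luminescent readout of HiBiT-tagged endogenous protein after lysis, following 24 h compound exposure of knock-in K562 lines at 37 °C. Ten 3-fold concentrations from 10 μM final, DMSO ≤0.25%. Four-parameter logistic fit of normalized response gives concentration halving abundance (IC50).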

Row | Compound | pIC50 (MYB mRNA) | pIC50 (HiBiT-tagged HTT protein) | AC50 (MYB mRNA) [µM]
1 | Cc1cn2cc(NC(=O)c3ccc(N4CCNCC4)c4ccnnc34)ncc2n1 [Compound 120] | 6.00 to 7.00 | < 5.00 | 0.1 to 1
2 | Cc1cn2cc(NC(=O)c3ccc([C@H]4CCNC4)c4nccnc34)cc(F)c2n1 [Compound 246] | 6.00 to 7.00 | 5.00 to 6.00 | 0.1 to 1
3 | COc1nc(NC(=O)c2ccc(N3C[C@@H](C)N[C@@H](C)C3)c3nccnc23)cn2cc(C)nc12 [Compound 277] | > 7.00 | 6.00 to 7.00 | < 0.1
4 | CN[C@H]1CCN(c2ccc(C(=O)Nc3cc(F)c4nc(C)cn4c3)c3nnccc23)C1 [Compound 239, (S)—N-(8-fluoro-2-methylimidazo[1,2-a]pyridin-6-yl)-5-(3-(methylamino)pyrrolidin-1-yl)cinnoline-8-carboxamide] | > 7.00 | 6.00 to 7.00 | 0.1 to 1
5 | Cc1cn2nc(NC(=O)c3ccc(C4CCNCC4)c4ccnnc34)cc(C)c2n1 [Compound 113] | 5.00 to 6.00 | 5.00 to 6.00 | 0.1 to 1
6 | CNC1CCN(c2ccc(C(=O)Nc3cc(F)c4nc(C)cn4c3)c3nc(OCCOC)ccc23)C1 (stereo not drawn) [Compound 234] | 6.00 to 7.00 | 5.00 to 6.00 | 0.1 to 1
7 | COc1cc2c(N3C[C@@H](C)N[C@@H](C)C3)ccc(C(=O)Nc3cc(F)c4nc(C)cn4c3)c2nn1 [Compound 273, 5-[(3R,5S)-3,5-dimethylpiperazin-1-yl]-N-{8-fluoro-2-methylimidazo[1,2-a]pyridin-6-yl}-3-methoxycinnoline-8-carboxamide] | 6.00 to 7.00 | 6.00 to 7.00 | 0.1 to 1
8 | Cn1cc2c(F)cc(NC(=O)c3ccc(N4CCNCC4)c4ccnnc34)cc2n1 [Compound 116] | < 5.00 | < 5.00 | > 10
9 | Cc1cn2cc(NC(=O)c3ccc(N4C[C@@H](C5CC5)N[C@@H](C)C4)c4nccnc34)cc(F)c2n1 [Compound 267, 8-((3R,5S)-3-cyclopropyl-5-methylpiperazin-1-yl)-N-(8-fluoro-2-methylimidazo[1,2-a]pyridin-6-yl)quinoxaline-5-carboxamide] | 6.00 to 7.00 | 5.00 to 6.00 | 0.1 to 1
10 | Cc1cn2cc(NC(=O)c3ccc(N4CCN[C@@H](C5CC5)C4)c4nccnc34)cc(F)c2n1 [Compound 252, 8-[(3S)-3-cyclopropylpiperazin-1-yl]-N-{8-fluoro-2-methylimidazo[1,2-a]pyridin-6-yl}quinoxaline-5-carboxamide] | 6.00 to 7.00 | 5.00 to 6.00 | 0.1 to 1
11 | Cc1cn2cc(NC(=O)c3ccc(N4C5CNCC54)c4nccnc34)cc(F)c2n1 (stereo not drawn) [Compound 262, 8-{3,6-diazabicyclo[3.1.0]hexan-6-yl}-N-{8-fluoro-2-methylimidazo[1,2-a]pyridin-6-yl}quinoxaline-5-carboxamide] | 6.00 to 7.00 | 6.00 to 7.00 | 0.1 to 1
12 | COc1cnc2c(N3CC[C@@H](N(C)C)C3)ccc(C(=O)Nc3cc(F)c4nc(C)cn4c3)c2n1 [Compound 244, 8-[(3R)-3-(dimethylamino)pyrrolidin-1-yl]-N-{8-fluoro-2-methylimidazo[1,2-a]pyridin-6-yl}-3-methoxyquinoxaline-5-carboxamide] | > 7.00 | 6.00 to 7.00 | < 0.1
13 | Cc1cn2cc(NC(=O)c3ccc(N4C[C@@H](C)N[C@@H](C)C4)c4ncc(O)nc34)cc(F)c2n1 [Compound 275] | < 5.00 | < 5.00 | > 10
14 | Cc1cn2cc(NC(=O)c3ccc(N4C[C@@H](C)N[C@@H](C)C4)c4ncc(Cl)nc34)cc(F)c2n1 [Compound 281] | 5.00 to 6.00 | 5.00 to 6.00 | 1 to 10
15 | Cc1cn2cc(NC(=O)c3ccc(N4CCN[C@@H](C(C)C)C4)c4nccnc34)cc(F)c2n1 [Compound 250, N-{8-fluoro-2-methylimidazo[1,2-a]pyridin-6-yl}-8-[(3S)-3-isopropylpiperazin-1-yl]quinoxaline-5-carboxamide] | 6.00 to 7.00 | < 5.00 | 1 to 10
16 | Cc1nc2c(F)cc(NC(=O)c3ccc(N4CCNCC4)c4ccnnc34)cc2s1 [Compound 118] | 6.00 to 7.00 | 6.00 to 7.00 | 0.1 to 1
17 | Cc1cn2cc(NC(=O)c3ccc(N4CCN5CCOC[C@@H]5C4)c4nccnc34)cc(F)c2n1 [Compound 255, (S)—N-(8-fluoro-2-methylimidazo[1,2-a]pyridin-6-yl)-8-(hexahydropyrazino[2,1-c][1,4]oxazin-8(1H)-yl)quinoxaline-5-carboxamide] | 6.00 to 7.00 | 6.00 to 7.00 | 0.1 to 1
18 | Cc1cn2cc(NC(=O)c3ccc(N4C[C@@H](C)N[C@@H](C)C4)c4ncc(N(C)C)nc34)cc(F)c2n1 [Compound 283] | > 7.00 | 6.00 to 7.00 | 0.1 to 1
19 | Cc1cn2cc(NC(=O)c3ccc(N4CCN5CCOC[C@H]5C4)c4nccnc34)cc(F)c2n1 [Compound 256, (R)—N-(8-fluoro-2-methylimidazo[1,2-a]pyridin-6-yl)-8-(hexahydropyrazino[2,1-c][1,4]oxazin-8(1H)-yl)quinoxaline-5-carboxamide] | 5.00 to 6.00 | 5.00 to 6.00 | 1 to 10
20 | Cc1cn2cc(NC(=O)c3ccc(N4CCNCC4)c4nccnc34)cc(F)c2n1 [Compound 111] | 6.00 to 7.00 | 6.00 to 7.00 | 0.1 to 1

More lines, main results first:

Row | pIC50 (MYB mRNA) | pIC50 (HiBiT-tagged HTT protein) | Compound | AC50 (MYB mRNA) [µM]
21 | > 7.00 | 6.00 to 7.00 | CCOc1cnc2c(N3C[C@@H](C)N[C@@H](C)C3)ccc(C(=O)Nc3cc(F)c4nc(C)cn4c3)c2n1 [Compound 296] | < 0.1
22 | 6.00 to 7.00 | 6.00 to 7.00 | CCN1CCN(c2ccc(C(=O)Nc3cc(F)c4nc(C)cn4c3)c3nccnc23)CC12CC2 [Compound 365] | 0.1 to 1
23 | 5.00 to 6.00 | < 5.00 | C[C@@H]1CN(c2ccc(C(=O)Nc3cc(F)c4ncccc4c3)c3nccnc23)C[C@H](C)N1 [Compound 344] | > 10
24 | 6.00 to 7.00 | 5.00 to 6.00 | Cc1cn2cc(NC(=O)c3ccc(N4C[C@@H](C)N[C@@H](C)C4)c4cccnc34)cc(F)c2n1 [Compound 340] | 0.1 to 1
25 | 5.00 to 6.00 | 5.00 to 6.00 | C[C@@H]1CN(c2ccc(C(=O)Nc3cc(F)c4cnccc4c3)c3nccnc23)C[C@H](C)N1 [Compound 343] | 1 to 10
26 | 6.00 to 7.00 | 5.00 to 6.00 | COc1nc(NC(=O)c2ccc(N3C[C@@H](C)N[C@@H](C)C3)c3nccnc23)cc2cn(C)nc12 [Compound 352] | 0.1 to 1
27 | 6.00 to 7.00 | 5.00 to 6.00 | Cc1cn2cc(NC(=O)c3ccc(N4C[C@@H](C)N[C@@H](C)C4)c4ncc(OC5CC5)nc34)cc(F)c2n1 [Compound 351] | 0.1 to 1
28 | 6.00 to 7.00 | 5.00 to 6.00 | Cc1cn2cc(NC(=O)c3ccc(N4CCNC5(CCC5)C4)c4nccnc34)cc(F)c2n1 [Compound 363] | 0.1 to 1
29 | 6.00 to 7.00 | 6.00 to 7.00 | Cc1cn2nc(NC(=O)c3ccc(N4C[C@@H](C)N[C@@H](C)C4)c4nccnc34)cc2c(C)n1 [Compound 354] | 0.1 to 1
30 | < 5.00 | < 5.00 | Cc1cn2cc(NC(=O)c3ccc(N4C[C@@H](C)N[C@@H](C)C4)c4ncccc34)cc(F)c2n1 [Compound 358] | > 10
31 | 6.00 to 7.00 | 5.00 to 6.00 | Cc1cn2cc(NC(=O)c3ccc(N4CCNCC4)c4nncnc34)cc(F)c2n1 [Compound 345] | 0.1 to 1
32 | < 5.00 | < 5.00 | COc1nc2c(F)cc(NC(=O)c3ccc(N4C[C@@H](C)N[C@@H](C)C4)c4nccnc34)cc2o1 [Compound 342] | > 10
33 | > 7.00 | 5.00 to 6.00 | Cc1cn2cc(NC(=O)c3ccc(N4C[C@@H](C)N[C@@H](C)C4)c4nccnc34)nc(C)c2n1 [Compound 288] | < 0.1
34 | 6.00 to 7.00 | < 5.00 | Cc1cn2cc(NC(=O)c3ccc(N4C[C@@H](C)N[C@@H](C)C4)c4nccnc34)nc2c(C)n1 [Compound 359] | 0.1 to 1
35 | 6.00 to 7.00 | 5.00 to 6.00 | COc1nc(NC(=O)c2ccc(N3C[C@@H](C)N[C@@H](C)C3)c3nccnc23)cc2oc(C)nc12 [Compound 298] | 0.1 to 1
36 | > 7.00 | 6.00 to 7.00 | COc1ncc2c(N3C[C@@H](C)N[C@@H](C)C3)ccc(C(=O)Nc3cc(F)c4nc(C)cn4c3)c2n1 [Compound 300] | < 0.1
37 | 6.00 to 7.00 | < 5.00 | Cc1c(O)c(NC(=O)c2ccc(N3C[C@@H](C)N[C@@H](C)C3)c3nccnc23)cc2cn(C)nc12 [Compound 310] | 0.1 to 1
38 | > 7.00 | 6.00 to 7.00 | Cc1cn2cc(NC(=O)c3ccc(N4C[C@H](C)N[C@@H](C)C4)c4nccnc34)cc(F)c2n1 [Compound 313] | < 0.1
39 | 6.00 to 7.00 | 5.00 to 6.00 | Cc1cn2cc(NC(=O)c3ccc(N4CCC5(CCN5)C4)c4nccnc34)cc(F)c2n1 (stereo not drawn) [Compound 339] | 1 to 10
40 | 5.00 to 6.00 | < 5.00 | CNc1nc(NC(=O)c2ccc(N3C[C@@H](C)N[C@@H](C)C3)c3nccnc23)cn2cc(C)nc12 [Compound 308] | 1 to 10
41 | 6.00 to 7.00 | 5.00 to 6.00 | Cc1cn2cc(NC(=O)c3ccc(NC4CCNC4)c4nccnc34)cc(F)c2n1 (stereo not drawn) [Compound 316] | 1 to 10
42 | 6.00 to 7.00 | 6.00 to 7.00 | Cc1cn2cc(NC(=O)c3ccc(N4CCN(C)C5(CC5)C4)c4nccnc34)cc(F)c2n1 [Compound 364] | 0.1 to 1
